# Results from publication PMC7948422, “Repurposing p97 inhibitors for chemical modulation of the bacterial ClpB–DnaK bichaperone system” (The Journal of Biological Chemistry, 2020).
# Assays:
# [1] = system: ClpB-YFP in dnaK103 E. coli; assay: Confocal microscopy of ClpB-YFP localization; type: cell-based, Escherichia coli; conditions: dnaK103, 100-μM DBeQ, 45 °C 30 min
# Protocol: ClpB-YFP and Luciferase-YFP were expressed at low levels in E. coli strains ΔclpB, dnaK103, and dnaK756 as described before ([44]). The expression of ClpB-YFP and YFP-Luciferase was initiated by addition of 200-μM IPTG or 0.02% (w/v) arabinose, respectively. The bacterial cells were cultured at 30 °C with 100-μM DBeQ or DMSO only. Protein translation was stopped by addition of erythromycin (30 μg/ml), and each culture was divided into two samples. One sample remained at 30 °C (control), whereas the other sample was transferred to 45 °C for 30 min (heat-shock conditions).
# A thin layer of 1% agarose (TopVision Low Melting Point Agarose, Thermo Scientific) was prepared on a clean microscope glass slide. A small drop of 1% agarose was placed near the frosted end of the glass slide while bringing a second glass slide at a 30 to 45° angle from above, allowing the agarose drop to spread along the contact edge. […] An E. coli culture sample (1 μl) was immediately placed on the agarose-covered glass slide, covered with a cover slip, and used for fluorescence imaging.
# Fluorescence imaging was performed using a Carl Zeiss LSM 880 Airyscan confocal microscope equipped with a Plan-Apochromat 63x/1.40 Oil DIC M27 objective coupled with a YFP Filter (excitation at 514 nm, emission at 561 nm, laser strength 0.98%). […]
# [2] = molecular target: firefly luciferase (Photinus pyralis, UniProt P08659); assay: Native firefly luciferase activity; type: biochemical; conditions: 100 µM compound
# Chain of firefly luciferase (P08659 whole entry): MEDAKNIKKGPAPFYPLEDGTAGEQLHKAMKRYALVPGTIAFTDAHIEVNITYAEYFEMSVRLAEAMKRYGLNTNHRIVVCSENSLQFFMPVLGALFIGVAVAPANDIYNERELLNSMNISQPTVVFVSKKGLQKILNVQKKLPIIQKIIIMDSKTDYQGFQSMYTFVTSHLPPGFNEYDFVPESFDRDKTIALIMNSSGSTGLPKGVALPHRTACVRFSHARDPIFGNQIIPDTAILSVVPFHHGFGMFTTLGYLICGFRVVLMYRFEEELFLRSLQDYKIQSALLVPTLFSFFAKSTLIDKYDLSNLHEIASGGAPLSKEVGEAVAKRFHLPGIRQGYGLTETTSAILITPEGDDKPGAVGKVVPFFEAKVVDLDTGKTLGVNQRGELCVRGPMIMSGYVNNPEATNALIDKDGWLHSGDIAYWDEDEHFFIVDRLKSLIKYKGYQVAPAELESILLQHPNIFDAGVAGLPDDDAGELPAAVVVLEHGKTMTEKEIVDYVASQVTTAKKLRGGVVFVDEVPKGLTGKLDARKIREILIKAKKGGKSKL
# [3] = molecular target: T1, ClpB E279Q/E678Q (Escherichia coli, UniProt P63284, E279Q/E678Q); assay: FITC-casein fluorescence anisotropy titration with ClpB E279Q/E678Q; type: binding
# T1 construct: made in house
# Protocol: To monitor interactions between casein and ClpB, we used FITC-casein and the substrate-trapping ClpB E279Q/E678Q variant ([52], [73]). The titration of FITC-casein with ClpB E279Q/E678Q in the presence of ATP or ADP and the fluorescence anisotropy measurements were performed as previously described ([65]).
# [4] = molecular target: T2, ClpB (Escherichia coli, UniProt P63284); assay: Pilot chemical library screen of ClpB ATPase (BioMol Green); type: biochemical; conditions: 388 bioactive compounds, in the presence of 25 μM κ-casein
# T2 construct: made in house
# Protocol: An absorbance-based assay for ClpB ATPase activity was developed by using BioMol Green Reagent (Enzo Life Sciences, Farmington, NY) for screening in a 384-microplate–based format. The optimized assay conditions were as follows: ClpB (150 nM), ATP ([…]), and κ-casein (25 μM) in 100-mM Tris/HCl, pH 8, 10-mM MgCl2, 1-mM DTT, and 1-mM EDTA. The samples were incubated for 10 min at 37 °C, and the ATP hydrolysis reaction was terminated by adding 80 μl of BIOMOL Green. Absorbance at 620 nm was measured with a PerkinElmer EnSpire. The optimized assay was used to screen compounds drawn from Selleck Bioactive library (1900 compounds; Selleck Chemicals, Houston, TX) in the presence or absence of κ-casein.
# [5] = molecular target: T3, ClpB W462F (Escherichia coli, UniProt P63284, W462F); assay: Surface plasmon resonance, immobilized ClpB W462F; type: binding
# T3 construct: made in house
# Protocol: ClpB, DnaK, and the NBD of DnaK were extensively dialyzed against the SPR buffer (20-mM Hepes, pH 7.4, 150-mM NaCl, 20-mM MgCl2, 1-mM EDTA, 1-mM DTT). After dialysis, the protein concentration was determined by the Bradford method. The DBeQ–protein interactions were studied using a Biacore T200 instrument (GE Healthcare) at 25 °C. The proteins were diluted to 300 μg/ml in 10-mM sodium acetate buffer (pH 5 for ClpB DnaK or pH 4 for NBD) and immobilized on HC1500M sensor chips (Xantec) by standard amine coupling chemistry as described previously ([70]). A reference flow cell was created by ethyl(dimethylaminopropyl) carbodiimide/N-hydroxysuccinimide activation followed by quenching with 1 M ethanolamine (pH 9.0). Solvent correction curves were obtained at the beginning and end and after every 50 injection cycles by injecting varying DMSO concentrations (4.0, 4.4, 4.6, 4.8, 5.0, 5.2, 5.4, and 5.9% [v/v]). All experiments were performed using a flow rate of 30 μl/min.
# Binding isotherms were obtained with the ligand diluted to different concentrations in the SPR running buffer HBSMTD (20-mM Hepes, pH 7.4, 140-mM NaCl, 20-mM MgCl2, 5% (v/v) DMSO, 0.005% (v/v) Tween-20). Replicate injections were performed for all samples, and a buffer-only injection was performed for every 12 injection cycles. To test the structural integrity of ClpB after immobilization on the sensor chips, we performed control titrations with ATPγS and adenosine. The dissociation constants determined from those experiments were ∼20 μM for ATPγS and ∼2 mM for adenosine. […] Moreover, the immobilized ClpB discriminated between a nucleotide analog and a nucleoside, which indicated an adequate structural integrity of ClpB on the sensor chips.
# The resulting sensorgrams were analyzed using Biacore T200 Evaluation Software v3.0 according to the following procedure. Solvent correction curves were generated and applied to all data sets, and all sensorgrams were double-referenced by subtracting the most recent buffer blank injection. […]
structure (smiles),measurement,setting,value
"c1ccc(CNc2nc(NCc3ccccc3)c3ccccc3n2)cc1 [DBeQ, N^2,N^4-dibenzylquinazoline-2,4-diamine]",ClpB-YFP localization with aggregates,[1],ClpB colocalizes with the aggregates even in dnaK103
same,effect on native luciferase activity,[2],not affected
same,Kd,[3],0.0785 µM
same,effect on ATP-dependent binding of casein to ClpB,[3]; 80-μM DBeQ,did not inhibit
same,Hill number of ClpB–FITC-casein binding with DBeQ,"[3]; 80-μM DBeQ, 5-mM ATP",1.48
same,saturation signal of ClpB–FITC-casein binding with DBeQ,"[3]; 80-μM DBeQ, 5-mM ATP",0.11
same,candidate ClpB ATPase inhibitor in pilot screen,[4],candidate ClpB ATPase inhibitor
same,Kd,[5],61.4 ± 4.7 µM
same,"Bmax (SPR signal at saturation), ClpB W462F",[5]; SPR,1.08 ± 0.03
same,"Hill coefficient, ClpB W462F",[5]; SPR,2.4 ± 0.4
